# Test results: patent US10940149B1, “Kinase inhibitor salts and compositions thereof” (HANDA ONCOLOGY, LLC, priority 2018, dated 2021)
# Structures can show the parent of a compound that is named as a salt.
# Assays:
# [1] = HPLC impurity and stability of dasatinib lauryl sulfate salts and capsules (Example 54); format: physicochemical
# Description: The RRT was determined using HPLC with the following parameters:
# The mobile phase A was 0.05 M aqueous Ammonium Acetate (pH 5.25)/Acetonitrile/Methanol in a volume ratio of 90/5/5.
# The mobile phase B was 0.05 M aqueous Ammonium Acetate (pH 5.25)/Acetonitrile/Methanol in a volume ratio of 10/85/5.
# Additional methanol is added so the test sample is approximately 0.20 mg of dasatinib per mL.
# [2] = HPLC impurity and stability of nilotinib lauryl sulfate salts and dosage forms (Example 62); format: physicochemical
# Description: Mobile phase A was 0.25% Formic Acid/acetonitrile in a volume ratio of 90/10.
# Mobile phase B was 0.1% Formic Acid/acetonitrile in a volume ratio of 10/90.
# Additional diluent is added so the test sample is approximately 0.10 mg of nilotinib per mL.
# The test sample of the dosage forms prepared in Examples 60 F and 60 G were prepared by the following procedure:
# 1. Cut the tip of the capsule with scissors and squeeze the contents from the hole into the 100-mL volumetric flask. Cut the capsule into two parts and add the parts to the flask. Add 80% full of ethanol, sonicate for 10 minutes and stir at 800 rpm for 30 minutes to dissolve the contents completely.
# 2. Dilute to volume with ethanol, mix well by inverting the flask NLT 10 times
# 3. Pipette 3 ml into 25-mL amber volumetric flask and add ethanol to volume, mix well by inverting the flask NLT 10 times. The test sample is approximately 0.096 mg of nilotinib per mL.
# The nilotinib dilauryl sulfate salt prepared in Example 26 were tested for impurities and stability using HPLC with the following parameters:
# The test sample of the nilotinib dilauryl sulfate salt prepared in Example 26 were prepared by weighing about 10 mg of nilotinib dilauryl sulfate (equivalent to 5 mg of nilotinib) and transfer into a 25-mL amber volumetric flask, adding 20 mL of diluent (ethanol), sonicating for about 5 minutes and stirring at 800 rpms for about 5 minutes until the nilotinib dilauryl sulfate is dissolved. Additional diluent is added so the test sample is approximately 0.20 mg of nilotinib per mL.
# [3] = solubility of nilotinib salts, HPLC (Example 38A); format: physicochemical; details: 37 °C, pH 1, simulated gastric fluid, thermodynamic from solid
# Description: (§1) The reaction mass was filtered and the filtrate solution was measured by HPLC.
# physchem = details: 37 °C, pH 1, simulated gastric fluid, thermodynamic from solid
# Description: as §1
# [4] = solubility of dasatinib salts at 37° C., HPLC (Example 47A); format: physicochemical; details: for solubility: thermodynamic from solid
# Description: as §1
# [5] = solubility of nintedanib salts at room temperature, HPLC (Example 25A); format: physicochemical; details: thermodynamic from solid
# Description: as §1
# [6] = 60° C./75% R.H. 1 week, HDPE bottle, HPLC Inertsil ODS-3 (NLB-2LS method)
# [7] = Room temp., HPLC Inertsil ODS-3 (NLB-2LS method)
compound,measurement,setting,value
"CCCCCCCCCCCCOS(=O)(=O)O.Cc1nc(Nc2ncc(C(=O)Nc3c(C)cccc3Cl)s2)cc(N2CCN(CCO)CC2)n1 [Example 12, dasatinib monolauryl sulfate]",impurity at RRT 0.96,"[1]; 40° C./75% R.H., 1 Month",0.09
same,impurity at RRT 1.10 (2-Chloro-6-methylaniline),"[1]; 40° C./75% R.H., 1 Month",0.04
same,impurity at RRT 1.31 (DAS-6),"[1]; 40° C./75% R.H., 1 Month",0.02
same,impurity at RRT 0.87,"[1]; 40° C./75% R.H., 3 Months",0.02
same,impurity at RRT 0.94 (DAS PIP),"[1]; 40° C./75% R.H., 3 Months",0.03
same,impurity at RRT 0.96,"[1]; 40° C./75% R.H., 3 Months",0.10
same,impurity at RRT 1.10 (2-Chloro-6-methylaniline),"[1]; 40° C./75% R.H., 3 Months",0.03
same,impurity at RRT 1.31 (DAS-6),"[1]; 40° C./75% R.H., 3 Months",0.03
same,impurity at RRT 0.87,[1]; Initial,0.02
same,impurity at RRT 0.94 (DAS PIP),[1]; Initial,0.02
same,impurity at RRT 0.96,[1]; Initial,0.09
same,impurity at RRT 1.10 (2-Chloro-6-methylaniline),[1]; Initial,0.02
same,impurity at RRT 1.31 (DAS-6),[1]; Initial,0.02
"CCCCCCCCCCCCOS(=O)(=O)O.CCCCCCCCCCCCOS(=O)(=O)O.Cc1nc(Nc2ncc(C(=O)Nc3c(C)cccc3Cl)s2)cc(N2CCN(CCO)CC2)n1 [Example 13, dasatinib dilauryl sulfate]",impurity at RRT 0.87,"[1]; 40° C./75% R.H., 1 Month",0.06
same,impurity at RRT 0.94 (DAS PIP),"[1]; 40° C./75% R.H., 1 Month",0.09
same,impurity at RRT 0.96,"[1]; 40° C./75% R.H., 1 Month",0.14
same,impurity at RRT 1.31 (DAS-6),"[1]; 40° C./75% R.H., 1 Month",0.04
same,impurity at RRT 0.87,[1]; Initial,0.06
same,impurity at RRT 0.94 (DAS PIP),[1]; Initial,0.09
same,impurity at RRT 0.96,[1]; Initial,0.13
same,impurity at RRT 1.31 (DAS-6),[1]; Initial,0.02
"CCCCCCCCCCCCOS(=O)(=O)O.CCCCCCCCCCCCOS(=O)(=O)O.Cc1cn(-c2cc(NC(=O)c3ccc(C)c(Nc4nccc(-c5cccnc5)n4)c3)cc(C(F)(F)F)c2)cn1 [Example 26, nilotinib dilauryl sulfate]",impurity at RRT 0.81,[2]; [6],0.05%
same,impurity at RRT 1.09,[2]; [6],0.07%
same,impurity at RRT 1.16,[2]; [6],0.11%
same,impurity at RRT 1.28,[2]; [6],0.08%
same,impurity at RRT 1.09,[2]; [7],0.07%
same,impurity at RRT 1.16,[2]; [7],0.10%
same,impurity at RRT 1.28,[2]; [7],0.02%
"CCCCCCCCCCCCOS(=O)(=O)O.Cc1cn(-c2cc(NC(=O)c3ccc(C)c(Nc4nccc(-c5cccnc5)n4)c3)cc(C(F)(F)F)c2)cn1 [Example 46, nilotinib monolauryl sulfate]",impurity at RRT 1.16,"[2]; 60° C./75% R.H. 2 weeks, HDPE bottle, HPLC Xterra RP18 (NLB-1LS method)",0.07%
same,impurity at RRT 1.16,"[2]; Room temp., HPLC Xterra RP18 (NLB-1LS method)",0.07%
Cc1cn(-c2cc(NC(=O)c3ccc(C)c(Nc4nccc(-c5cccnc5)n4)c3)cc(C(F)(F)F)c2)cn1 [Nilotinib HCl],solubility,[3],3800 µg/mL
"Cc1ccc(Nc2nccc(N(C)c3ccc4c(C)n(C)nc4c3)n2)cc1S(N)(=O)=O [Pazopanib Hydrochloride, pazopanib hydrochloride]",solubility,physchem,3360 µg/mL
Cc1nc(Nc2ncc(C(=O)Nc3c(C)cccc3Cl)s2)cc(N2CCN(CCO)CC2)n1 [dasatinib],"aqueous solubility, pH dependence",[4],varied with pH
same,solubility,"[4]; aqueous buffer, 0.05M acetate buffer, pH = 4.5",86.9 µg/mL
same,solubility,"[4]; aqueous buffer, 0.05M phosphate buffer, pH = 6.8",0.18 µg/mL
same,solubility,"[4]; simulated gastric fluid, 0.1N HCl, pH = 1.0",654 µg/mL
COC(=O)c1ccc2c(c1)NC(=O)/C2=C(\Nc1ccc(N(C)C(=O)CN2CCN(C)CC2)cc1)c1ccccc1 [nintedanib esylate],solubility,"[5]; aqueous buffer, 0.05 M acetate buffer, pH = 4.5",6260 µg/mL
same,solubility,"[5]; aqueous buffer, 0.05 M phosphate buffer, pH = 6.8",2.2 µg/mL
same,solubility,"[5]; simulated gastric fluid, 0.1 N HCl, pH = 1.0",107000 µg/mL
